From patent US20230104936A1, “TRPML MODULATORS” (Casma Therapeutics, Inc., priority 2019, published 2023)

Test system: TFEB
Experiment: TFEB nuclear translocation assay, HeLa wt cells
Assay type: cell-based
Settings: Homo sapiens, HeLa, 2 h, 2 hrs compound treatment, Table 1 does not say HeLa wt or TRPML1 KO
Method in brief: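 Cells are plated overnight, exposed to compounds for 2 hrs at 37° C, fixed with 4% PFA, blocked, and stained overnight at 4° C with rabbit anti-TFEB. After Alexa 488 secondary and Hoechst, nuclei and a perinuclear ring are segmented to give a nuclear:ring intensity ratio and AC50.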

Row | Structure (SMILES) | AC50 [µM]
1 | CC(c1ccccc1N1CCC(c2c(F)cccc2F)CC1)S(=O)(=O)c1ccc(S(=O)(=O)N(C)C)cc1 (centres unmarked) [Compound A-254, 4-((1-(2-(4-(2,6-difluorophenyl)piperidin-1-yl)phenyl)ethyl)sulfonyl)-N,N-dimethylbenzenesulfonamide] | ≤ 2
2 | CN(C)S(=O)(=O)c1ccc(S(=O)(=O)Nc2ccccc2N2CCN(CC(C)(F)F)CC2)cc1 [Compound A-525, N4-{2-[4-(2,2-difluoropropyl)piperazin-1-yl]phenyl}-N1,N1-dimethylbenzene-1,4-disulfonamide] | ≤ 2
3 | COCC1(C)CCN(c2ccccc2NS(=O)(=O)c2ccc(S(C)(=O)=O)c(F)c2)CC1 [Compound A-731, 3-fluoro-4-methanesulfonyl-N-{2-[4-(methoxymethyl)-4-methylpiperidin-1-yl]phenyl}benzene-1-sulfonamide] | ≥ 10
4 | CN(C)S(=O)(=O)c1ccc(S(=O)(=O)Nc2ccccc2N2CCC(F)(COC(F)(F)F)CC2)cc1 [Compound A-798, N4-(2-{4-fluoro-4-[(trifluoromethoxy)methyl]piperidin-1-yl}phenyl)-N1,N1-dimethylbenzene-1,4-disulfonamide] | ≤ 2
5 | CCOCCC1CCN(c2ccccc2NS(=O)(=O)c2ccc(S(=O)(=O)N(C)C)cc2)CC1 [Compound A-498, N4-{2-[4-(2-ethoxyethyl)piperidin-1-yl]phenyl}-N1,N1-dimethylbenzene-1,4-disulfonamide] | ≤ 2
6 | CN(C)S(=O)(=O)c1ccc(S(=O)(=O)Nc2ccccc2N2CCC3(CCOCC3)CC2)cc1 [Compound A-524, N1,N1-dimethyl-N4-(2-{3-oxa-9-azaspiro[5.5]undecan-9-yl}phenyl)benzene-1,4-disulfonamide] | ≤ 2
7 | Cc1ccc(N2CCOCC2)c(NS(=O)(=O)c2ccc(S(=O)(=O)N(C)C)cc2)c1 [Compound A-757, N1,N1-dimethyl-N4-[5-methyl-2-(morpholin-4-yl)phenyl]benzene-1,4-disulfonamide] | ≤ 2
8 | CN(C)S(=O)(=O)c1ccc(S(=O)(=O)Nc2ccccc2N2CCC(C(C)(F)F)CC2)cc1 [Compound A-506, N4-{2-[4-(1,1-difluoroethyl)piperidin-1-yl]phenyl}-N1,N1-dimethylbenzene-1,4-disulfonamide] | ≤ 2
9 | CN(C)S(=O)(=O)c1ccc(S(=O)(=O)Nc2ccccc2N2CCC(COC(C)(C)C)CC2)cc1 [Compound A-494, N4-(2-{4-[(tert-butoxy)methyl]piperidin-1-yl}phenyl)-N1,N1-dimethylbenzene-1,4-disulfonamide] | ≤ 2
10 | O=S(=O)(Nc1cc(Cl)ccc1N1CCN(c2ccc(Cl)cc2F)CC1)c1ccc2c(c1)CCC2 [Compound A-291, N-{5-chloro-2-[4-(4-chloro-2-fluorophenyl)piperazin-1-yl]phenyl}-2,3-dihydro-1H-indene-5-sulfonamide] | ≤ 2
11 | Cc1ccc(S(=O)(=O)Nc2ccccc2N2CCC(c3ccc(Cl)cc3F)C2)cc1 (centres unmarked) [Compound A-102, N-{2-[3-(4-chloro-2-fluorophenyl)pyrrolidin-1-yl]phenyl}-4-methylbenzene-1-sulfonamide] | 2.01 to 8
12 | CC(C)(C)C(=O)N1CCN(c2ccccc2NS(=O)(=O)c2ccc(CC(F)(F)F)cc2)CC1 [Compound A-567, N-{2-[4-(2,2-dimethylpropanoyl)piperazin-1-yl]phenyl}-4-(2,2,2-trifluoroethyl)benzene-1-sulfonamide] | ≥ 10
13 | CN(C)S(=O)(=O)c1ccc([S+]([O-])c2ccccc2N2CCC(c3ccc(Cl)cc3F)CC2)cc1 (centres unmarked) [Compound A-181, 4-((2-(4-(4-chloro-2-fluorophenyl)piperidin-1-yl)phenyl)sulfinyl)-N,N-dimethylbenzenesulfonamide] | 2.01 to 8
14 | O=S(=O)(Nc1cc(Cl)ccc1N1CCC2(COC2)C1)c1ccc2c(c1)CCC2 [Compound A-395, N-(5-chloro-2-{2-oxa-6-azaspiro[3.4]octan-6-yl}phenyl)-2,3-dihydro-1H-indene-5-sulfonamide] | ≥ 10
